# Laboratory results taken from patent US10131639B2, “Formulations of 2-(tert-butylamino)-4-((1R,3R,4R)-3-hydroxy-4methylcyclohexylamino)-pyrimidine-5-carboxamide” (Signal Pharmaceuticals, LLC, priority 2014, dated 2018).
# Experiments:
# [1] = Hygroscopicity by dynamic vapor sorption (DVS); type: physicochemical
# Text: DVS: A portion of the sample was loaded into a quartz sample holder and tested using DVS-Advantage system in two continuous adsorption/desorption cycles. The settings are described as follows:
# Adsorption/desorption cycle 1: 50 to 95 to 0% RH;
# Adsorption/desorption cycle 2: 0 to 95 to 0% RH;
# [2] = in vivo; settings: rat
# Text: Based upon available human PK and preclinical pharmacology data, the doses were anticipated to provide a range of PD effects including both minimum and maximum JNK inhibition.
# [3] = Phase 1 study: safety and tolerability in healthy subjects; type: in vivo, human
# Text: Safety will be monitored throughout the study. Safety evaluations will include adverse event (AE) reporting, PEs, vital signs, 12-lead ECGs, clinical laboratory safety tests (including liver function tests (LFTs), total cholesterol, triglycerides, high-density lipoprotein (HDL), and low-density lipoprotein (LDL)) in addition to standard clinical chemistry, hematology, and urinalysis tests), review of concomitant medications/procedures, evaluation of wound healing, and pregnancy tests for female subjects.
# All AEs will be monitored and recorded throughout the study from the time the informed consent form (ICF) is signed until study completion, and when made known to the Investigator within 28 days after the last dose of Compound 1 (and those serious adverse events (SAEs) made known to the Investigator at any time thereafter that are suspected of being related to IP). All concomitant medications and procedures will be reviewed and recorded from the time the subject signs the ICF until study completion. A follow-up visit (Part 1) or a follow-up phone call (Part 2) will be scheduled for all subjects. If a subject is discontinued from the study for any reason, an ET visit will be performed.
# Part 1: To evaluate the safety of single and multiple oral doses of Compound 1; and Part 2: To evaluate the safety and tolerability of the formulated Compound 1 tablets when administered with food.
# [4] = Earlier human experience with Compound 1 (doses up to 480 mg QD×14 days); type: in vivo; settings: healthy subjects
# [5] = in vivo; settings: dog
# [6] = test system: UVB-induced phospho c-jun expression in skin; assay: Phospho c-Jun immunohistochemistry of UVB-irradiated skin biopsies: histopathology scores (scale 0-4); type: in vivo, human
# Text: On baseline (Day −1) and on the sixth day of each dosing period (Days 6, 12, and 18), the skin test sites were delineated on the subject's upper buttock between the beltline and the natal cleft on the right side. The right side of the buttock was divided into four different test sites, one site for 2×MED irradiation at baseline and each of the three dosing periods. Each test site was a minimum of 3 cm×3 cm. Subjects received 2×MED UV irradiation at baseline (Day −1) at approximately the same time that irradiation was scheduled on Days 6, 12, and 18, which was 2 hours postdose. Eight hours after UV irradiation (±10 minutes), a skin punch biopsy was taken from the UV exposure site. The biopsies were processed into tissue slides by a third party and analyzed by immunohistochemistry (IHC). This third party was blinded to the treatment periods (baseline and doses).
# Phospho-c-Jun expression in biopsies was analyzed by IHC. Phospho-c-Jun IHC data were subjectively scored on a scale of 0 to 4 based on the intensity and number of epidermal keratinocyte nuclei stained within the tissue section by trained individuals blinded to treatment. The IHC was also analyzed by automated measurement of integrated optical density.
# Phospho c-Jun immunohistochemistry (IHC) images were scored by 2 independent pathologists from Quintiles using a scoring scale of 0-4. The percentage of epithelial c-Jun positive nuclei was scored as follows: […]
structure (smiles),measurement,setting,value
"C[C@@H]1CC[C@@H](Nc2nc(NC(C)(C)C)ncc2C(N)=O)C[C@H]1O [Compound 1, 2-(tert-butylamino)-4-((1R,3R,4R)-3-hydroxy-4-methylcyclohexylamino)-pyrimidine-5-carboxamide]","Hygroscopicity (80% RH, 25° C., cycle 1 sorption)","[1]; DVS water uptake, L-tartrate: hydrate, difference between 20% RH and 80% RH",0.17%
same,"hygroscopicity (sorption/desorption, in words)","[1]; DVS, 25° C.",not hygroscopic
same,AUC,[2],23400 ng·h/mL
same,subjects reporting TEAEs,"[3]; 11 of 28 subjects, 17 TEAEs, Parts 1 and 2 overall",39.3%
same,"clinical laboratory evaluations, vital sign measurements, ECGs",[3]; Parts 1 and 2,No clinically significant changes or findings
same,subjects with an SAE or severe TEAE,"[3]; Parts 1 and 2 overall, 28 subjects",No subjects
same,safety and tolerability,"[3]; multiple doses 60, 160 and 400 mg AIC QD for 6 days",safe and well tolerated
same,diarrhea suspected of being related to Compound 1,[3]; of 28 subjects,2 subjects
same,nausea suspected of being related to Compound 1,[3]; of 28 subjects,4 subjects
same,safety and tolerability,[3]; single doses of 200 mg as formulated tablets (fed and fasted) and AIC (fasted),safe and well tolerated
same,tolerability,[4],well tolerated
same,AUC at 28 days,[5],81200 ng·h/mL
same,percentage of individuals showing either no change or a decrease in histopathology score,[6]; 60 mg dose group (8/15),53%
same,percentage of individuals showing either no change or a decrease in histopathology score,[6]; 160 mg dose group (10/14),71%
same,percentage of individuals showing either no change or a decrease in histopathology score,[6]; 400 mg dose group (11/14),79%
same,change from baseline in median histopathology scores,"[6]; 60, 160, 400 mg QD×6 days, scale 0-4, 2 independent pathologists",not significantly affected
